Experimental data as given in patent publication US9556169B2, “Compounds and compositions for the treatment of parasitic diseases” (NOVARTIS AG, priority 2012, dated 2017).
Read-outs that look alike come from different tables or passages of the source.

Assays:
[1] = tested on: Plasmodium berghei line expressing luciferase (Pb-luc) sporozoites; experiment: Liver stage P. berghei luciferase proliferation assay in CD81-GFP-HepG2 cells; format: cell-based
Protocol: Liver Stage P. berghei Luciferase Proliferation Assay
CD81-GFP-HepG2 cells (obtained from the lab of Dominique Mazier) were seeded into GNF custom Greiner plates (1536-well, white, TC-treated, solid bottom). A final density of 3000 cells/well was achieved by dispensing 5 ul per well of a 600,000 cells/mL resuspended in Assay Media (AM; phenol-red free DMEM, 2% FBS, 5×PSG) via a MicroFlo (Biotek; 5 ul dispense cassette). The seeded assay plates were incubated overnight at 37° C. in an incubator with 5% CO2. The following day, a 10 nL volume of compound was transferred acoustically (ECHO 525, Labcyte Inc.) to each well in the assay plate. Sporozoite forms of a Plasmodium berghei line expressing luciferase (Pb-luc) were dissected and purified from infected Anopheles stephensi mosquitoes (provided by the NYU insectary) as previously described by Meister et al. (Science, 2011). Purified sporozoites (spz) were stored at 250 spz/uL in chilled PBS supplemented with 3% BSA. 3 uL of Pb-luc spz solution was dispensed to each assay well using a Bottlevalve equipped with a custom, single-tip dispense head (GNF Systems). Assay plates were centrifuged at 330×g for 3 minutes to pellet the spz, then the assay plates were returned to the 37° C. incubator for 48 h. Luciferase signal, which corresponds with parasite proliferation, was detected by adding 2 uL of BrightGlo (Promega) to each well using the MicroFlo (Biotek; 1 ul cassette). Luminescence was immediately measured on an Envision MultiLabel Plate Reader (PerkinElmer).

[2] = tested on: P. falciparum (NF54 or 3D7 strain); experiment: P. falciparum proliferation assay in infected human blood cells (SYBR Green); format: cell-based; conditions: Plasmodium falciparum, Erythrocyte, read-out: EC50 (nM), inhibitory efficacy in delaying P. falciparum proliferation in infected human blood cells
Protocol: Assay for P. falciparum Proliferation in Infected Human Blood Cells
Compounds of the invention can be assayed to measure their capacity to inhibit proliferation of P. falciparum parasitemia in infected red blood cells. This parasite proliferation assay measures the increase in parasite DNA content using a DNA intercalating dye, SYBR Green® (INVITROGEN®) which has a high affinity for double stranded DNA.
NF54 or 3D7 P. falciparum strain is grown in complete culturing media until parasitemia reaches 3% to 8% with O+ human erythrocytes. […] 20 μl of screening media is dispensed into 384 well assay plates. 50 nl of compounds of the invention (in DMSO), including antimalarial controls (mefloquine, pyrimethamine and artemisinin), are then transferred into the assay plates, as well as DMSO alone to serve as a negative control for inhibition. Then 30 μl of a suspension of a NF54 or 3D7 P. falciparum infected erythrocytes in screening media is dispensed into the assay plates such that the final hematocrit is 2.5% with a final parasitemia of 0.3%. The plates are placed in a 37° C. incubator for 72 hours in a low oxygen environment containing 93% N2, 4% CO2, and 3% O2 gas mixture. 10 μl of lysis buffer (saponin, triton-X, EDTA) containing a 10× solution of SYBR Green I® in RPMI media is dispensed into the plates. The plates are lidded and kept at room temperature overnight for the lysis of the infected red blood cells. The fluorescence intensity is measured (excitation 425 nm, emission 530 nm) using the Envision™ system (Perkin Elmer). The percentage inhibition of 50%, EC50, is calculated for each compound.

[3] = read-out: EC50, P. berghei luciferase Proliferation Assay
[4] = values marked * in Table 2, CD81-GFP-HepG2 cells, 48 h, luminescence, read-out: EC50 (nM), P. berghei luciferase Proliferation Assay
[5] = infected human erythrocytes, 72 hours, SYBR Green fluorescence

Row | SMILES | EC50 [2, 5] [nM] | EC50 [1, 3] [nM] | EC50 [1, 4] [nM] | EC50 ([2]; 72 h) [nM]
1 | CNC(=O)c1ccc(-c2cnn3ccc(C(=O)N(NC)c4ccc(C#N)cc4)cc23)cn1 [Example 92, 5-(5-(1-(4-cyanophenyl)-2-methylhydrazinecarbonyl)pyrazolo[1,5-a]pyridin-3-yl)-N-methyl picolinamide] | 24 | ≤ 20 | 15 | 
2 | CNC(=O)c1ccc(-c2cnn3ccc(N(C)C(=O)c4ccc(C#N)cn4)cc23)cc1 [Example 94, 5-cyano-N-methyl-N-(3-(4-(methylcarbamoyl)phenyl)pyrazolo[1,5-a]pyridin-5-yl)picolinamide] | 17 | ≤ 20 | 13 | 
3 | CCN(C(=O)c1ccn2ncc(-c3ccc(C(=O)NC)cc3)c2c1)c1ccc(F)cn1 [Example 95, N-ethyl-N-(5-fluoropyridin-2-yl)-3-(4-(methylcarbamoyl)phenyl)pyrazolo[1,5-a]pyridine-5-carboxamide] | 23 | ≤ 20 | 5 | 
4 | CCN(C(=O)c1ccn2ncc(-c3ccc(C(=O)NC)cc3)c2c1)c1ccc(C(F)(F)F)cn1 [Example 96, N-ethyl-3-(4-(methylcarbamoyl)phenyl)-N-(5-(trifluoromethyl)pyridin-2-yl)pyrazolo[1,5-a]pyridine-5-carboxamide] | 12 | ≤ 20 | 4 | 
5 | CNC(=O)c1ccc(-c2cnn3ccc(C(=O)N(c4ccc(F)c(F)c4)C4CC4)cc23)cc1 [Example 130, N-Cyclopropyl-N-(3,4-difluorophenyl)-3-(4-(methylcarbamoyl)phenyl)pyrazolo[1,5-a]pyridine-5-carboxamide] | 12 |  |  | 
6 | CNC(=O)c1ccc(-c2cnn3ccc(C(=O)N(c4ccc(C#N)cn4)C4CC4)cc23)nc1 [Example 133, N-(5-Cyanopyridin-2-yl)-N-cyclopropyl-3-(5-(methylcarbamoyl)pyridin-2-yl)pyrazolo[1,5-a]pyridine-5-carboxamide] | 58 |  | 34 | 
7 | NC(=O)c1ccc(-c2cnn3ccc(C(=O)N(c4ccc(F)c(F)c4)C4CC4)cc23)cc1 [Example 135, 3-(4-Carbamoylphenyl)-N-cyclopropyl-N-(3,4-difluorophenyl)pyrazolo[1,5-a]pyridine-5-carboxamide] | 1 |  |  | 
8 | CNC(=O)c1ccc(-c2cnn3ccc(C(=O)N(c4ccc(C)cn4)C4CC4)cc23)cc1 [Example 136, N-Cyclopropyl-3-(4-(methylcarbamoyl)phenyl)-N-(5-methylpyridin-2-yl)pyrazolo[1,5-a]pyridine-5-carboxamide] |  |  | 10 | 
9 | CNC(=O)c1ccc(-c2cnn3ccc(C(=O)N(c4ccc(C#N)cc4)C4CC4)cc23)cn1 [Example 137, N-(4-Cyanophenyl)-N-cyclopropyl-3-(6-(methylcarbamoyl)pyridin-3-yl)pyrazolo[1,5-a]pyridine-5-carboxamide] | 12 |  | 10 | 
10 | CNC(=O)c1ccc(-c2cnn3ccc(C(=O)N(c4ccc(C#N)cc4)C4CC4)cc23)nc1 [Example 141, N-(4-Cyanophenyl)-N-cyclopropyl-3-(5-(methylcarbamoyl)pyridin-2-yl)pyrazolo[1,5-a]pyridine-5-carboxamide] |  |  | 17 | 65
11 | N#Cc1ccc(N(C(=O)c2ccn3ncc(-c4ccc(C(N)=O)cn4)c3c2)C2CC2)cc1 [Example 142, 3-(5-Carbamoylpyridin-2-yl)-N-(4-cyanophenyl)-N-cyclopropylpyrazolo[1,5-a]pyridine-5-carboxamide] |  |  |  | 48
12 | CNC(=O)c1ccc(-c2cnn3ccc(C(=O)N(c4ccc(Cl)cc4)C4CC4)cc23)cn1 [Example 143, N-(4-Chlorophenyl)-N-cyclopropyl-3-(6-(methylcarbamoyl)pyridin-3-yl)pyrazolo[1,5-a]pyridine-5-carboxamide] | 12 |  | 7 | 
13 | CNC(=O)c1ccc(-c2cnn3ccc(C(=O)N(c4ccc(C#N)cn4)C4CCC4)cc23)cn1 [Example 144, N-(5-Cyanopyridin-2-yl)-N-cyclobutyl-3-(6-(methylcarbamoyl)pyridin-3-yl)pyrazolo[1,5-a]pyridine-5-carboxamide] | 27 |  | 22 | 
14 | CNC(=O)c1ccc(-c2cnn3ccc(C(=O)N(c4ccc(C#N)cc4)C4CCC4)cc23)cn1 [Example 145, N-(4-Cyanophenyl)-N-cyclobutyl-3-(6-(methylcarbamoyl)pyridin-3-yl)pyrazolo[1,5-a]pyridine-5-carboxamide] | 12 |  | 8 | 
15 | N#Cc1ccc(N(C2CC2)S(=O)(=O)c2ccn3ncc(-c4ccc(C(N)=O)cc4)c3c2)nc1 [Example 165, 4-(5-(N-(5-cyanopyridin-2-yl)-N-cyclopropylsulfamoyl)pyrazolo[1,5-a]pyridin-3-yl)benzamide] | 3 |  |  | 

The next lines start with results.

Row | EC50 [2, 5] [nM] | SMILES | EC50 [1, 3] [nM] | EC50 [1, 4] [nM] | EC50 ([2]; 72 h) [nM]
16 | 67 | CNC(=O)c1ccc(-c2cnn3ccc(C(=O)N(c4ccc(C#N)cn4)C4CCCC4)cc23)cc1 [Example 126, N-(5-Cyanopyridin-2-yl)-N-cyclopentyl-3-(4-(methylcarbamoyl)phenyl)pyrazolo[1,5-a]pyridine-5-carboxamide] |  |  | 
17 | 49 | CCNC(=O)c1ccc(-c2cnn3ccc(C(=O)N(c4ccc(C#N)cn4)C4CC4)cc23)cc1 [Example 127, N-(5-Cyanopyridin-2-yl)-N-cyclopropyl-3-(4-(ethylcarbamoyl)phenyl)pyrazolo[1,5-a]pyridine-5-carboxamide] |  |  | 
18 | 4270 | CNC(=O)c1ccc(-c2cnn3ccc(C(=O)N(c4ccc(C(=O)O)cn4)C4CC4)cc23)cc1 [Example 128, 6-(N-Cyclopropyl-3-(4-(methylcarbamoyl)phenyl)pyrazolo[1,5-a]pyridine-5-carboxamido) nicotinic acid] |  |  | 
19 | 2440 | CNC(=O)c1ccc(-c2cnn3ccc(C(=O)N(c4ccc(C(N)=O)cn4)C4CC4)cc23)cc1 [Example 129, N-(5-Carbamoylpyridin-2-yl)-N-cyclopropyl-3-(4-(methylcarbamoyl)phenyl)pyrazolo[1,5-a]pyridine-5-carboxamide] |  |  | 
20 | 324 | N#Cc1ccc(N(C(=O)c2ccn3ncc(-c4ccc(C(=O)NC5COC5)cc4)c3c2)C2CC2)nc1 [Example 131, N-(5-Cyanopyridin-2-yl)-N-cyclopropyl-3-(4-(oxetan-3-ylcarbamoyl)phenyl)pyrazolo[1,5-a]pyridine-5-carboxamide] |  |  | 
21 | 29 | CNC(=O)c1ccc(-c2cnn3ccc(C(=O)N(c4ccc(C(F)(F)F)cn4)C4CC4)cc23)cc1 [Example 132, N-Cyclopropyl-3-(4-(methylcarbamoyl)phenyl)-N-(5-(trifluoromethyl)pyridin-2-yl)pyrazolo[1,5-a]pyridine-5-carboxamide] |  |  | 
22 | 4 | N#Cc1ccc(N(C(=O)c2ccn3ncc(-c4ccc(C(N)=O)cc4)c3c2)C2CC2)cc1 [Example 134, 3-(4-carbamoylphenyl)-N-(4-cyanophenyl)-N-cyclopropylpyrazolo[1,5-a]pyridine-5-carboxamide] |  |  | 
23 | 10 | N#Cc1ccc(N(C(=O)c2ccn3ncc(-c4ccc(C(N)=O)nc4)c3c2)C2CC2)cc1 [Example 138, 3-(6-Carbamoylpyridin-3-yl)-N-(4-cyanophenyl)-N-cyclopropylpyrazolo[1,5-a]pyridine-5-carboxamide] |  |  | 
24 | 30 | N#Cc1ccc(N(C(=O)c2ccn3ncc(-c4ccc(C(N)=O)cn4)c3c2)C2CC2)nc1 [Example 139, 3-(5-Carbamoylpyridin-2-yl)-N-(5-cyanopyridin-2-yl)-N-cyclopropylpyrazolo[1,5-a]pyridine-5-carboxamide] |  |  | 
25 | 2 | CNC(=O)c1ccc(-c2cnn3ccc(S(=O)(=O)N(c4ccc(C#N)cn4)C4CC4)cc23)cc1 [Example 164, 4-(5-(N-(5-Cyanopyridin-2-yl)-N-cyclopropylsulfamoyl)pyrazolo[1,5-a]pyridin-3-yl)-N-methylbenzamide] |  |  | 
